Results from patent publication US20100298141A1, “SUBSTITUTED PYRIDINE N-OXIDE HERBICIDES” (E. I. DU PONT DE NEMOURS AND COMPANY, priority 2007, published 2010).

Key:
winter barley = test: Test C postemergence test; format: in vivo, Hordeum vulgare; settings: for Plant response rating, Barley: scale 0 to 100, 0 no effect, 100 complete control
Outline: (§1)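 Postemergence sprays of formulated test chemicals on plants 2 to 18 cm tall (1- to 4-leaf stage). Greenhouse hold for 13 to 15 days, then visual rating of each species against untreated controls; dash means no test result.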

chickweed = test: Test C postemergence test; format: in vivo, Stellaria media; settings: for Plant response rating, Chickweed: scale 0 to 100, 0 no effect, 100 complete control
Outline: as §1

green foxtail = test: Test F preemergence test; format: in vivo, Setaria viridis; settings: scale 0 to 100
Outline: (§2)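 Visual ratings relative to controls, taken after 14 to 21 days in a greenhouse. Test chemicals, formulated in a surfactant-containing non-phytotoxic solvent mixture, were applied preemergence to sown seeds or postemergence to sugarcane plants.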

johnsongrass = test: Test F preemergence test; format: in vivo, Sorghum halepense; settings: scale 0 to 100
Outline: as §2

pitted morningglory = test: Test F preemergence test; format: in vivo, Ipomoea lacunosa; settings: scale 0 to 100
Outline: as §2

guineagrass = test: Test F preemergence test; format: in vivo, Panicum maximum; settings: scale 0 to 100
Outline: as §2

dallisgrass = test: Test F preemergence test; format: in vivo, Paspalum dilatatum; settings: scale 0 to 100
Outline: as §2

common sowthistle = test: Test F preemergence test; format: in vivo, Sonchus oleraceous; settings: scale 0 to 100
Outline: as §2

prickly sida = test: Test F preemergence test; format: in vivo, Sida spinosa; settings: scale 0 to 100
Outline: as §2

common purslane = test: Test F preemergence test; format: in vivo, Portulaca oleracea; settings: scale 0 to 100
Outline: as §2

common groundsel = test: Test F preemergence test; format: in vivo, Senecio vulgaris; settings: scale 0 to 100
Outline: as §2

Virginia dayflower = test: Test F preemergence test; format: in vivo, Commelina virginica; settings: scale 0 to 100
Outline: as §2

annual bluegrass = test: Test F preemergence test; format: in vivo, Poa annua; settings: scale 0 to 100
Outline: as §2

naked crabgrass = test: Test F preemergence test; format: in vivo, Digitaria nuda; settings: scale 0 to 100
Outline: as §2

itchgrass = test: Test F preemergence test; format: in vivo, Rottboellia cochinchinensis; settings: scale 0 to 100
Outline: as §2

field bindweed = test: Test F preemergence test; format: in vivo, Convolvulus arvensis; settings: scale 0 to 100
Outline: as §2

common mallow = test: Test F preemergence test; format: in vivo, Malva sylvestris; settings: scale 0 to 100
Outline: as §2

Russian thistle = test: Test F preemergence test; format: in vivo, Salsola kali; settings: scale 0 to 100
Source text: Seeds of plant species selected from bermudagrass (Cynodon dactylon), Surinam grass (Brachiaria decumbens), large crabgrass (Digitaria sanguinalis), green foxtail (Setaria viridis), goosegrass (Eleusine indica), johnsongrass (Sorghum halepense), kochia (Kochia scoparia), pitted morningglory (Ipomoea lacunosa), purple nutsedge (Cyperus rotundus), common ragweed (Ambrosia elation), mustard (Brassica nigra), guineagrass (Panicum maximum), […] (Paspalum dilatatum), barnyardgrass (Echinochloa crus-galli), southern sandbur (Cenchrus echinatus), common sowthistle (Sonchus oleraceous), prickly […] spinosa), Italian ryegrass (Lolium multiflorum), common purslane (Portulaca oleracea), broadleaf signalgrass (Brachiaria platyphylla), common groundsel (Senecio vulgaris), common chickweed (Stellaria media), Virginia dayflower (Commelina virginica), annual bluegrass (Poa annua), naked crabgrass (Digitaria nuda), […] cochinchinensis), quackgrass (Elytrigia repens), Canada horseweed (Conyza canadensis), field bindweed (Convolvulus arvensis), […] (Bidens bipinnata), common mallow (Malva sylvestris), Russian thistle (Salsola kali), and sugarcane (Saccharum officinarum) were planted and treated preemergence with test chemicals formulated in a non-phytotoxic solvent mixture which included a surfactant. At a different time, sugarcane was treated with postemergence applications of some of the test chemicals formulated in the same manner. Plants were approximately 3- to 4-leaf stage for the postemergence treatments. Treated plants and controls were maintained in a greenhouse for 14 to 21 days, after which time all species were compared to controls and visually evaluated. […] A dash (-) response means no test result.

Compound: Cc1cc[n+]([O-])c([S+]([O-])Cc2c(C(F)(F)F)nn(C)c2OC(F)F)c1 (centres unmarked) [Compound 1]
- Plant response rating (0 to 100), Barley (winter barley; 31 g ai/ha): 0
- Plant response rating, Barley (winter barley; 62 g ai/ha): 0
- Plant response rating, Barley (winter barley; 125 g ai/ha): 0
- Plant response rating, Barley (winter barley; 250 g ai/ha): 0
- Plant response rating (0 to 100), Chickweed (chickweed; 31 g ai/ha): 50
- Plant response rating, Chickweed (chickweed; 62 g ai/ha): 65
- Plant response rating, Chickweed (chickweed; 125 g ai/ha): 90
- Plant response rating, Chickweed (chickweed; 250 g ai/ha): 90
- Plant response rating, Foxtail, Green (green foxtail; 8 g ai/ha, preemergence): 0
- Foxtail, Green plant response rating (green foxtail; 62 g ai/ha, Preemergence): 100
- Plant response rating, Foxtail, Green (green foxtail; Preemergence, 16 g ai/ha): 60
- Plant response rating, Foxtail, Green (green foxtail; Preemergence, 31 g ai/ha): 80
- Plant response rating, Johnsongrass (johnsongrass; 8 g ai/ha, preemergence): 35
- Johnsongrass plant response rating (johnsongrass; 62 g ai/ha, Preemergence): 90
- Plant response rating, Johnsongrass (johnsongrass; Preemergence, 16 g ai/ha): 70
- Plant response rating, Johnsongrass (johnsongrass; Preemergence, 31 g ai/ha): 90
- Plant response rating, Morningglory (pitted morningglory; 8 g ai/ha, preemergence): 0
- Morningglory plant response rating (pitted morningglory; 62 g ai/ha, Preemergence): 95
- Plant response rating, Morningglory (pitted morningglory; Preemergence, 16 g ai/ha): 10
- Plant response rating, Morningglory (pitted morningglory; Preemergence, 31 g ai/ha): 75
- Plant response rating, Guineagrass (guineagrass; 8 g ai/ha, preemergence): 65
- Guineagrass plant response rating (guineagrass; 62 g ai/ha, Preemergence): 100
- Plant response rating, Guineagrass (guineagrass; Preemergence, 16 g ai/ha): 80
- Plant response rating, Guineagrass (guineagrass; Preemergence, 31 g ai/ha): 80
- Plant response rating, Dallisgrass (dallisgrass; 8 g ai/ha, preemergence): 0
- Dallisgrass plant response rating (dallisgrass; 62 g ai/ha, Preemergence): 50
- Plant response rating, Dallisgrass (dallisgrass; Preemergence, 16 g ai/ha): 0
- Plant response rating, Dallisgrass (dallisgrass; Preemergence, 31 g ai/ha): 20
- Plant response rating, Sowthistle (common sowthistle; 8 g ai/ha, preemergence): 0
- Plant response rating, Sowthistle (common sowthistle; 16 g ai/ha, preemergence): 0
- Sowthistle plant response rating (common sowthistle; 62 g ai/ha, Preemergence): 70
- Plant response rating, Sowthistle (common sowthistle; Preemergence, 31 g ai/ha): 30
- Plant response rating, Prickly Sida (prickly sida; 8 g ai/ha, preemergence): 0
- Prickly Sida plant response rating (prickly sida; 62 g ai/ha, Preemergence): 80
- Plant response rating, Prickly Sida (prickly sida; Preemergence, 16 g ai/ha): 20
- Plant response rating, Prickly Sida (prickly sida; Preemergence, 31 g ai/ha): 60
- Plant response rating, Purslane (common purslane; 8 g ai/ha, preemergence): 0
- Purslane plant response rating (common purslane; 62 g ai/ha, Preemergence): 80
- Plant response rating, Purslane (common purslane; Preemergence, 16 g ai/ha): 35
- Plant response rating, Purslane (common purslane; Preemergence, 31 g ai/ha): 60
- Plant response rating, Groundsel (common groundsel; 8 g ai/ha, preemergence): 0
- Groundsel plant response rating (common groundsel; 62 g ai/ha, Preemergence): 35
- Plant response rating, Groundsel (common groundsel; Preemergence, 16 g ai/ha): 20
- Plant response rating, Groundsel (common groundsel; Preemergence, 31 g ai/ha): 35
- Plant response rating, Dayflower (Virginia dayflower; 8 g ai/ha, preemergence): 0
- Dayflower plant response rating (Virginia dayflower; 62 g ai/ha, Preemergence): 100
- Plant response rating, Dayflower (Virginia dayflower; Preemergence, 16 g ai/ha): 0
- Plant response rating, Dayflower (Virginia dayflower; Preemergence, 31 g ai/ha): 80
- Plant response rating, Bluegrass (annual bluegrass; 8 g ai/ha, preemergence): 0
- Bluegrass plant response rating (annual bluegrass; 62 g ai/ha, Preemergence): 75
- Plant response rating, Bluegrass (annual bluegrass; Preemergence, 16 g ai/ha): 0
- Plant response rating, Bluegrass (annual bluegrass; Preemergence, 31 g ai/ha): 25
- Plant response rating, Crabgrass, Naked (naked crabgrass; 8 g ai/ha, preemergence): 0
- Crabgrass, Naked plant response rating (naked crabgrass; 62 g ai/ha, Preemergence): 100
- Plant response rating, Crabgrass, Naked (naked crabgrass; Preemergence, 16 g ai/ha): 15
- Plant response rating, Crabgrass, Naked (naked crabgrass; Preemergence, 31 g ai/ha): 90
- Plant response rating, Itchgrass (itchgrass; 8 g ai/ha, preemergence): 0
- Itchgrass plant response rating (itchgrass; 62 g ai/ha, Preemergence): 90
- Plant response rating, Itchgrass (itchgrass; Preemergence, 16 g ai/ha): 60
- Plant response rating, Itchgrass (itchgrass; Preemergence, 31 g ai/ha): 70
- Plant response rating, Field Bindweed (field bindweed; 8 g ai/ha, preemergence): 0
- Field Bindweed plant response rating (field bindweed; 62 g ai/ha, Preemergence): 75
- Plant response rating, Field Bindweed (field bindweed; Preemergence, 16 g ai/ha): 0
- Plant response rating, Field Bindweed (field bindweed; Preemergence, 31 g ai/ha): 50
- Plant response rating, Mallow (common mallow; 8 g ai/ha, preemergence): 0
- Mallow plant response rating (common mallow; 62 g ai/ha, Preemergence): 100
- Plant response rating, Mallow (common mallow; Preemergence, 16 g ai/ha): 0
- Plant response rating, Mallow (common mallow; Preemergence, 31 g ai/ha): 70
- Plant response rating, Russian Thistle (Russian thistle; 8 g ai/ha, preemergence): 0
- Plant response rating, Russian Thistle (Russian thistle; Preemergence, 16 g ai/ha): 0
- Plant response rating, Russian Thistle (Russian thistle; Preemergence, 31 g ai/ha): 0
